Measured values: article PMC6232958 (Molecular Biology of the Cell, 2018)

Test system: CRM1-mediated nuclear export of EYFP2-SV40NLS-NES reporter in HeLa cells
Test: Inhibition of reporter nuclear export by cotransfected RFP-NES or by LMB
Assay type: cell-based
Settings: HeLa cells expressing EYFP2-SV40NLS-PKI NES treated with LMB (5 nM, 16-18 h)

## CCC(=C/[C@H](C)C/C=C/C(C)=C/[C@@H](C)C(=O)[C@@H](C)[C@H](O)[C@@H](C)C/C(C)=C/C(=O)O)/C=C/[C@@H]1OC(=O)C=C[C@@H]1C [leptomycin B]
  decrease of nuclear export of PKI NES: 92%
